# Measurements reported in US20230321043A1, “COMPOUNDS HAVING PSEUDOMONAS ANTI-BIOFILM PROPERTIES” (Københavns Universitet, priority 2020, published 2023).
# What was measured:
# wt P. aeruginosa biofilm [1] = experiment: time dependent liberation of bacteria from biofilm (CFU); assay type: cell-based, Pseudomonas aeruginosa; settings: 25 μM, 18 hours old biofilm, FIG. 4C
# Experimental: In a further experiment (FIG. 4C) the time dependent liberation of wt P. aeruginosa bacteria during H6-335-P1 induced dispersal performed in 48 well trays microtiter trays was determined. After 18 hours of growth in ABtrace media aliquots supplemented with 0.5% glucose, 0.5% Cas amino acids and 1 μM FeCl3 on a rotary shaker, 25 μM H6-335-P1 or 1% DMSO control was added. At the time-points indicated, samples were withdrawn and plated for CFU determinations. Average CFU's per ml for the 1% DMSO controls at each time point are set to 100.
# [2] = tested on: P. aeruginosa wspF mutant; experiment: Congo Red agar plate colony phenotype; assay type: cell-based, Pseudomonas aeruginosa; settings: CR plates supplemented with 100 μM; dark red without compound
# Excerpt: The inventors employed mutational analysis with the aim of identifying a putative target of H6-335-P1. The compound Congo Red (CR) binds to exopolymers whose production is positively regulated by c-di-GMP in P. aeruginosa (Friedman, L., and R. Kolter. 2003.
# Genes involved in matrix formation in Pseudomonas aeruginosa PA14 biofilms. Molecular Microbiology 51:675-690).
# wt P. aeruginosa biofilm [3] = experiment: dispersal of 8 hour old biofilm, crystal violet staining; assay type: cell-based, Pseudomonas aeruginosa
# Experimental: Using a 96 well microtiter tray format, a 20 hour old culture of wt P. aeruginosa was diluted 1000 fold into 100 μL ABtrace media aliquots supplemented with 0.2% glucose, 0.5% Cas amino acids and 1 μM FeCl3. The resulting microtiter trays were sealed with an air permeable lid and the biofilm cultures were incubated at 37° C. on a rotary shaker at 160 RPM.
# After this, the culture supernatants were discarded and the remaining biomass was stained with crystal violet (Groizeleau et al. 2016). Finally, the amount of Crystal violet bound to the biofilm present in each well was plotted as a function of H6-335-P1, H6-335, H6-335-SAR compound 26 and H6-335- SAR compound 25 in the following concentrations: 100 μM, 50 μM, 25 μM, 12 μM or 0 μM (FIG. 4D). Means and standard deviations (bars) in FIG. 4D represents 5 biological replicates (n=5)
# [4] = tested on: P. aeruginosa ΔbifAΔwspFΔpelΔpsl/pCdrA-gfp; experiment: c-di-GMP monitor read-out in bifA knockout; assay type: cell-based, Pseudomonas aeruginosa; settings: 100 μM, 18 hours of cultivation, FIG. 6B right
# Experimental: This experiment was done using a 96 well microtiter format where 20 hour old cultures of the P. aeruginosa ΔwspFΔpelΔpsl/pCdrA-gfp c-di-GMP monitor strain and the P. aeruginosa ΔbifAΔwspFΔpelΔpsl/pCdrA-gfp c-di-GMP monitor strain were diluted 100 fold into 100 μL ABTrace media aliquots supplemented with 0.2% glucose, 0.5% casamino acids, 1 μM FeCl3, 60 μg/mL of gentamicin, 1% DMSO and either 100 μM or 0 μM of H6-335-P1. The resulting microtitter was incubated at 37° C. and 440 RPM in a Tecan reader, and corresponding values of GFP fluorescence (FU) and cell density (OD600) was measured every 20 minutes for 24 hours.
# [5] = tested on: P. aeruginosa biofilms on implants; experiment: P. aeruginosa-infected peritoneal implant model in mice; assay type: in vivo; settings: intraperitoneal
# Experimental: Silicone implants (5 mm long, 6 mm OD×4 mm ID) were incubated with P. aeruginosa cultures (OD 0.1) for 20 hours to allow bacterial adhesion and subsequent coating. At time t=0, mice had the implants inserted in the peritoneal cavity and biofilm developed on the implants for 24 hours. (A) At 24 hours and 26 hours post-insertion of the implants (PI), the mice were treated with either H6-335-P1 (named “H6 P1” in FIG. 8) 25 μM (˜6 μg/g BW) in 0.2% cyclodextrin or 0.2% cyclodextrin, and at 26 hours PI with 30 μg per g BW tobramycin (TOB) or 0.9% NaCl. […] At 28 hours PI the mice were euthanized, and the bacterial contents as CFU per implant were determined. The median CFU per implant for the placebo group was set to 100. The median CFU per implant for the placebo groups were 8.5×10^6 (A) and 1.5×10^6 (B). Horizontal lines indicate median CFU for each group. Each symbol represents a mouse. Significance levels are based on Mann-Whitney U test (analysis of non-parametric data). IP administered doses: TOB: 30 mg/Kg BW, CIP: 10 mg/Kg BW, H6 P1: 2×6 mg/Kg BW.
# The inventors first determined H6-335-P1 anti-biofilm efficacy in implant-harboring mice at low dosages (concentration) of 5 to 25 μM H6-335-P1 which corresponds to 1 to 5 μg H6-335-P1 per gram of body weight. […]
# Klebsiella pneumoniea = experiment: biofilm formation / dispersal, host range; assay type: cell-based; settings: data not shown
# [6] = tested on: Stenotrophomonas maltophilia; experiment: biofilm formation / dispersal, host range; assay type: cell-based; settings: data not shown
# Excerpt: (§1) To determine the host range of H6-335-P1, the inventors conducted a Blast search for analogs of the P. aeruginosa BifA phosphodiesterase protein encoded by gene PA4367 (bifA).
# Enterobacter cloacae = experiment: biofilm formation / dispersal, host range; assay type: cell-based; settings: data not shown
# Excerpt: as §1
# Burkholderia cenocepacia = experiment: biofilm formation / dispersal, host range; assay type: cell-based; settings: data not shown
# Excerpt: as §1
# [7] = tested on: P. aeruginosa (PA01) tagged with GFP biofilm; experiment: flow-chamber biofilm, confocal laser scanning microscopy; assay type: cell-based, Pseudomonas aeruginosa
# Experimental: Biofilms were grown at 37° C. in continuous-culture, once-through, three-channel, flow-chambers (individual channel dimensions of 1×4×40 mm) perfused with sterile AB trace minimal medium (Pamp and Tolker-Nielsen, 2007), supplemented with 0.3 mM glucose and 0.025% (v/v) DMSO. P. aeruginosa (PA01) tagged with GFP at a neutral chromosomal locus was used for the experiments. After a static attachment phase of 1 h, the flow of medium was turned on and the biofilms were allowed to establish for 48 h in the absence (untreated) or presence (treated) of medium supplemented with 25 μM of H6-335-P1. Confocal laser scanning microscopy was used to image the biofilms after 24 h and 48 h (FIG. 5A).
# Confocal laser scanning microscopy was used to image the biofilm immediately before H6-335-P1 was added, and after 4 h of H6-335-P1 treatment. Simulated fluorescence projections in 3D were generated from the image stacks using the IMARIS software package (Bitplane, Oxford Imaging, UK) and the resulting images were processed for publication using Photoshop (Adobe, USA).
compound,measurement,setting,value
"N=C1NN=C(N)/C1=N/Nc1ccccc1F [H6-335-P1, 4-[(2-fluorophenyl) hydrazinylidene]pyrazole-3,5-diamine]",dispersal of live bacteria from already formed biofilms,wt P. aeruginosa biofilm [1],induced dispersal of live bacteria into the growth medium
same,colony colour on Congo Red plates,[2],white colonies
same,dispersal of an 8 hour old biofilm,"wt P. aeruginosa biofilm [3]; 100 μM, within a 2 hours period",88%
same,rank of biofilm dispersing potency among the four tested compounds,"wt P. aeruginosa biofilm [3]; 12 to 100 μM, two hours of dispersal, FIG. 4D",most potent biofilm dispersing compound
same,fluorescent read-out of ΔbifA c-di-GMP monitor strain,[4],completely unaffected
same,biofilm bacteria dispersed from the implant,"[5]; 5 to 25 μM (1 to 5 μg per gram of body weight), four hours of exposure, not shown",up to 90%
same,"CFU on implants, combinatorial treatment followed by tobramycin or ciprofloxacin",[5]; FIG. 8,synergistic antimicrobial (lethal) effects
same,biofilm formation of Klebsiella pneumoniea,Klebsiella pneumoniea,failed to reduce biofilm formation
same,biofilm formation of Stenotrophomonas maltophilia,[6],failed to reduce biofilm formation
same,biofilm formation of Enterobacter cloacae,Enterobacter cloacae,failed to reduce biofilm formation
same,biofilm formation of Burkholderia cenocepacia,Burkholderia cenocepacia,failed to reduce biofilm formation
same,prevention of biofilm formation in flow-through cells,"[7]; 25 μM in the growth medium, 48 h, FIG. 5A",significantly prevented biofilm formation
same,biofilm biomass left behind,"[7]; 25 μM, 48 h old biofilm, after four hours of exposure, FIG. 5B",10%
